Read-outs that look alike come from different tables or passages of the source.
Legend:
[1] = system: HepG2 cells
Experimental: HepG2 (ATCC® HB-8065™), an immortalized cell line derived from human hepatocellular carcinoma, was obtained from the American Type Culture Collection (Manassas, VA). HepG2 cells were cultured in high-glucose DMEM supplemented with 10% FBS, 1× GlutaMAX™, and 100 U/ml Pen-Strep. For chemical exposures, exponentially growing cells were plated in a tissue cultured treated 96-well plate two days before treatment.
(§1) To load cells into microwells, ∼2000–200 000 cells in suspension were placed into each macrowell, and the chip was incubated at 37°C in the presence of 5% CO2 for 15 min. Cell were loaded into microwells by gravity, and excess cells were then washed off with PBS by shear force. The chip was covered with a layer of overlay agarose (1% w/v low-melting point agarose solution in PBS, kept molten at 43°C until use). For complete gelation of the overlay agarose, the chip was kept at room temperature for two minutes followed by 2 min at 4°C.
(§2) The alkaline comet assay was performed as previously ([15],[79]). Sodium chloride (NaCl, 7581), disodium EDTA (Na2EDTA, 4931), and sodium hydroxide pellets (NaOH, 7708) were purchased from VWR, Radnor, PA. Trizma® base (T1503), Trizma® HCl (T5941) and Triton X-100 (X-100) were obtained from MilliporeSigma, St. Louis, MO. 10 000× SYBR™ Gold nucleic acid gel stain was obtained from ThermoFisher Scientific, Waltham, MA.
(§3) The alkaline lysis buffer (pH ∼ 10) was a solution of 2.5 M NaCl, 100 mM Na2EDTA, 10 mM Trizma® base, and 1% (v/v) Triton X-100 dissolved in deionized H2O (dI H2O). […] The neutralization buffer (pH ∼ 7.5) was prepared by dissolving Trizma® HCl in distilled H2O to a final concentration of 0.4 M.
(§4) Cells encapsulated in CometChip were lysed in the alkaline lysis buffer overnight at 4°C. The nuclei were unwound in the alkaline unwinding buffer for 40 min at 4°C, and the DNA was electrophoresed in the same buffer at the same temperature for 30 min at 1 V/cm and ∼300 mA. The CometChip was then washed three times in neutralization buffer by submerging for 5 min each time.
(§5) The DNA on CometChip was stained for 15 min at room temperature with 1× of SYBR™ Gold diluted in PBS, protected from light. Fluorescent images of the comets were captured at 40× magnification using an epifluorescence microscope (Nikon Eclipse 80i, Nikon Instruments, Inc., Melville, NY, USA) with a 480 nm excitation filter. Image acquisition was achieved by automatic scanning using a motorized XY stage. Comet images were automatically analyzed using Guicometanalyzer, a custom software developed in MATLAB (The MathWorks Inc., Natick, MA, USA) as previously described ([15]). For each condition, 100 comets or more were analysed. Outputs from Guicometanalyzer were processed and imported to a spreadsheet (Microsoft Excel, Microsoft Office Suite 2016) using Comet2Excel, an in-house software developed in Python (Python Software Foundation, Python version 2.7.10). Software is freely available upon request.
(§6) A vehicle control condition was included by diluting DMSO in cell culture medium to get a final concentration of 0.5%. Cells were incubated with the test compound for 24 h at 37°C in the presence of 5% CO2.
HepG2 were incubated with the test compound for 24 h at 37°C in the presence of 5% CO2. A vehicle control (0.07% sodium bicarbonate) was included.
Cells embedded in CometChip were placed on ice and irradiated with 0, 0.9, 1.8, 3.6, 5.4, 7.2 and 9 Gy of gamma rays from a Cs 137 radiation source with a dose rate of 0.9 Gy/min. The irradiated cells were submerged into lysis buffer overnight and the alkaline CometChip assay performed as described above.

[2] = system: TK6 cells
[3] = biological target: T1, CYP1A2 (Homo sapiens, UniProt P05177); format: cell-based; set-up: The activity levels of CYP3A4 and CYP1A2 in cells were measured according to the manufacturer's protocol for non-lytic cell-based assays; endogenous in cells; host or cells: HepG2; conditions: human
Experimental: (§7) The CYP450-Glo™ CYP3A4 assay with luciferin-IPA (V9001) and the CYP450-Glo™ CYP1A2 assay with luciferin-1A2 (V8421) were purchased from Promega, Madison, WI. The activity levels of CYP3A4 and CYP1A2 in cells were measured according to the manufacturer's protocol for non-lytic cell-based assays. Luminescent signals were recorded using a SpectraMax M2e microplate reader (Molecular Devices, Sunnyvale, CA, USA). Control wells with no cells were included to obtain background luminescence. The net signal for each sample was obtained by subtracting the background luminescence value.
(§8) CYP3A4 or CYP1A2 activity per cell can be obtained by normalizing CYP450-Glo™ values with cell numbers. After a sample was analyzed for CYP3A4 or CYP1A2 activity, the CTG® assay was performed to obtain an estimate of the number of viable cells in the sample. The result from CYP450-Glo™ was then divided by the CTG® value to obtain the average CYP3A4 or CYP1A2 activity per cell.

[4] = biological target: T1, CYP1A2; format: cell-based; conditions: human
Experimental: as §7, §8

[5] = system: HepaRG™ cells
Excerpt: Cryopreserved HepaRG™ (HPRGC10), a terminally differentiated hepatic cell line, was purchased from ThermoFisher Scientific (Waltham, MA). HepaRG™ was thawed and cultured according to manufacturer's instructions. Briefly, the general purpose working medium was WEM supplemented with 1X GlutaMAX™ and 1X HepaRG™ Thaw, Plate, & General Purpose Medium Supplement. The metabolism working medium was WEM supplemented with 1X GlutaMAX™ and HepaRG™ Maintenance/Metabolism Medium Supplement. HepaRG™ cells were thawed in the general purpose working medium and plated in a 96-well plate coated with collagen I at 100 000 cells/well. One day after plating, the general purpose working medium was changed to the metabolism working medium. The metabolism working medium was renewed on day 4 and day 6 after plating. On day 7, the cells were treated in the metabolism working medium.
as §1, §2, §3, §4, §5
For this experiment, the comets were analysed using Trevigen® Comet Analysis Software.
as §6
HepaRG™ were incubated with the test compound for 24 h at 37°C in the presence of 5% CO2. A vehicle control (1% DMSO) was included.

[6] = biological target: T1, CYP1A2; format: cell-based; set-up: endogenous in cells; host or cells: HepG2; conditions: HepG2; B[a]P 24 h
Experimental: as §7, §8

[7] = system: Xpa−/− mouse hepatocytes; conditions: presence of HU/AraC, 24 h, compared with WT
Experimental: as §4
as §5, with “Outputs from Guicometanalyzer were processed and imported to a spreadsheet (Microsoft Excel, Microsoft Office Suite 2016) using Comet2Excel, an in-house software developed in Python (Python Software Foundation, Python version 2.7.10). Software is freely available upon request.” left out
(§9) Primary mouse hepatocytes were obtained from 10 to 14 weeks old C57Bl6 mice using a standard two-step collagenase liver perfusion procedure with minor changes ([80],[81]). […] Cell viability and cell number were analyzed using an automated Trypan Blue exclusion system [Vi-CELL™ cell counter (Beckman Coulter Life Sciences, Brea, CA)]. […]

[8] = system: primary mouse hepatocytes; conditions: WT primary mouse hepatocytes; absence of HU/AraC; 24 h
Experimental: as §4
as §5, with “Outputs from Guicometanalyzer were processed and imported to a spreadsheet (Microsoft Excel, Microsoft Office Suite 2016) using Comet2Excel, an in-house software developed in Python (Python Software Foundation, Python version 2.7.10). Software is freely available upon request.” left out
as §9

[9] = biological target: T1, CYP1A2; format: cell-based; set-up: endogenous in cells; conditions: HepaRG; B[a]P 24 h
Experimental: as §7, §8

T1 sequence (P05177 whole entry): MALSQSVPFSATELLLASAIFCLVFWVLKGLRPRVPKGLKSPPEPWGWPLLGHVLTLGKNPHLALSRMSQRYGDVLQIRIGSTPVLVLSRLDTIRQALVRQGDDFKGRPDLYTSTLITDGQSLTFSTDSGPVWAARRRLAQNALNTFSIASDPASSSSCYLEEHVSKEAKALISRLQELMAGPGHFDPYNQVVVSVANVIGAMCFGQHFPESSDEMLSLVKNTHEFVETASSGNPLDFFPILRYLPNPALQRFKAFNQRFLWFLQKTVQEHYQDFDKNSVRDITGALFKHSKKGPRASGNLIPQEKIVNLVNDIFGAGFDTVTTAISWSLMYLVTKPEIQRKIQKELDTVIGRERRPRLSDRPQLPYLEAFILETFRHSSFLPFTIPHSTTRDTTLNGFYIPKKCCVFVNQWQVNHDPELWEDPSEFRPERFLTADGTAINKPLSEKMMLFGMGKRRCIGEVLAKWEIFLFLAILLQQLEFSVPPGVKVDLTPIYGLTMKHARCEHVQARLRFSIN

**Q.** What does the source list for O=c1cc(-c2ccccc2)oc2c1ccc1ccccc12 [ANF, α-Naphthoflavone]?
**A.** DNA damage by inhibitor alone [1]: does not induce DNA damage; Level of B[a]P-induced SSBs in the presence of ANF [1]: near background levels; DNA damage by inhibitor alone [2]: does not induce DNA damage; B[a]P induction of CYP1A2 in the presence of ANF [3]: induction of CYP1A2 is prevented; B[a]P induction of CYP1A2 in the presence of ANF [4]: induction of CYP1A2 is prevented; DNA damage by inhibitor alone [5]: does not induce DNA damage; Level of B[a]P-induced SSBs in the presence of ANF [5]: near background levels

**Q.** Which “CYP1A2 activity level (induction)” value [6] does the source give for c1ccc2c(c1)cc1ccc3cccc4ccc2c1c34 [B[a]P, Benzo[a]pyrene] here?
**A.** The value was “induced in a dose-dependent manner”.

**Q.** What about the “Genotoxicity Alkaline CometChip HepaRG (+ HU + AraC) +/−” value [5] of the same compound?
**A.** Its value is “+”.

**Q.** What about the “Genotoxicity Alkaline CometChip HepaRG +/−” value [5] of the same compound?
**A.** Its value is “−”.

**Q.** And the “SSBs” value [7]?
**A.** Its value is “not significantly”.

**Q.** What about the “SSBs” value [8] of the same compound?
**A.** Its value is “significant, but relatively small, increase in SSBs”.

**Q.** And the “CYP1A2 activity level (induction)” value [9]?
**A.** The value was “induced in a dose-dependent manner”.
